Legend:
Assay in all cases: relative viability (nuclei count vs DMSO), 5 days (fraction); higher = more cells survive
JZL-184 + Foretinib = compound: C1CN(CCC1C(C2=CC3=C(C=C2)OCO3)(C4=CC5=C(C=C4)OCO5)O)C(=O)OC6=CC=C(C=C6)[N+](=O)[O-] [JZL-184] + COc1cc2c(Oc3ccc(NC(=O)C4(C(=O)Nc5ccc(F)cc5)CC4)cc3F)ccnc2cc1OCCCN1CCOCC1 [Foretinib] (partner 0.25 µM)
Method in brief: (§1)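 After 5 days of treatment, lung cancer cells in 1536-well plates were fixed and stained in a single step (final 0.05% Triton X-100, 1% formaldehyde, 1 ug/ml Hoechst) and their nuclei counted on 4× images. Treatment had been applied by pin tool the day after seeding as one drug alone or as a fixed anchor-drug dose with five library-drug doses (not always all listed) in √10 steps. Relative viability is the nuclei count of treated wells divided by that of vehicle wells, and values are medians of duplicate plates.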

JZL-184 + Tozasertib = compound: C1CN(CCC1C(C2=CC3=C(C=C2)OCO3)(C4=CC5=C(C=C4)OCO5)O)C(=O)OC6=CC=C(C=C6)[N+](=O)[O-] [JZL-184] + Cc1cc(Nc2cc(N3CCN(C)CC3)nc(Sc3ccc(NC(=O)C4CC4)cc3)n2)n[nH]1 [Tozasertib] (partner 0.1 µM)
Method in brief: as §1

JZL-184 + Decitabine = compound: C1CN(CCC1C(C2=CC3=C(C=C2)OCO3)(C4=CC5=C(C=C4)OCO5)O)C(=O)OC6=CC=C(C=C6)[N+](=O)[O-] [JZL-184] + Nc1ncn([C@H]2C[C@H](O)[C@@H](CO)O2)c(=O)n1 [Decitabine] (partner 2 µM)
Method in brief: as §1

JZL-184 + Navitoclax = compound: C1CN(CCC1C(C2=CC3=C(C=C2)OCO3)(C4=CC5=C(C=C4)OCO5)O)C(=O)OC6=CC=C(C=C6)[N+](=O)[O-] [JZL-184] + CC1(C)CCC(c2ccc(Cl)cc2)=C(CN2CCN(c3ccc(C(=O)NS(=O)(=O)c4ccc(N[C@H](CCN5CCOCC5)CSc5ccccc5)c(S(=O)(=O)C(F)(F)F)c4)cc3)CC2)C1 [Navitoclax] (partner 0.5 µM)
Method in brief: as §1

JZL-184 + Dasatinib = compound: C1CN(CCC1C(C2=CC3=C(C=C2)OCO3)(C4=CC5=C(C=C4)OCO5)O)C(=O)OC6=CC=C(C=C6)[N+](=O)[O-] [JZL-184] + Cc1nc(Nc2ncc(C(=O)Nc3c(C)cccc3Cl)s2)cc(N2CCN(CCO)CC2)n1 [Dasatinib] (partner 0.075 µM)
Method in brief: as §1

| Cell Line | relative viability (JZL-184 + Foretinib; first compound 0.04 µM) | relative viability (JZL-184 + Foretinib; first compound 0.4 µM) | relative viability (JZL-184 + Foretinib; first compound 1.265 µM) | relative viability (JZL-184 + Foretinib; first compound 4 µM) | relative viability (JZL-184 + Tozasertib; first compound 0.04 µM) | relative viability (JZL-184 + Tozasertib; first compound 0.4 µM) | relative viability (JZL-184 + Tozasertib; first compound 1.265 µM) | relative viability (JZL-184 + Tozasertib; first compound 4 µM) | relative viability (JZL-184 + Decitabine; first compound 0.04 µM) | relative viability (JZL-184 + Decitabine; first compound 1.265 µM) | relative viability (JZL-184 + Decitabine; first compound 4 µM) | relative viability (JZL-184 + Navitoclax; first compound 0.04 µM) | relative viability (JZL-184 + Navitoclax; first compound 0.4 µM) | relative viability (JZL-184 + Navitoclax; first compound 1.265 µM) | relative viability (JZL-184 + Navitoclax; first compound 4 µM) | relative viability (JZL-184 + Dasatinib; first compound 0.04 µM) | relative viability (JZL-184 + Dasatinib; first compound 0.4 µM) | relative viability (JZL-184 + Dasatinib; first compound 1.265 µM) | relative viability (JZL-184 + Dasatinib; first compound 4 µM) | relative viability (JZL-184 + Decitabine; first compound 0.4 µM) |
| --- | --- | --- | --- | --- | --- | --- | --- | --- | --- | --- | --- | --- | --- | --- | --- | --- | --- | --- | --- | --- |
| HCC-78 | 0.558 | 0.526 | 0.515 | 0.475 | 0.402 | 0.413 | 0.388 | 0.318 | 0.77 | 0.793 | 0.646 | 0.709 | 0.75 | 0.724 | 0.551 | 0.276 | 0.359 | 0.391 | 0.301 | – |
| HCC-366 | 0.986 | 0.889 | 0.931 | 0.958 | 0.133 | 0.508 | 0.109 | 0.0909 | 0.348 | 0.336 | 0.314 | 1.21 | 1.03 | 1.07 | 1.06 | 0.892 | 0.64 | 0.61 | 0.638 | 0.357 |
| HCC-827 | 1.12 | 0.962 | 1.01 | 0.943 | 0.421 | 0.383 | 0.449 | 0.411 | 0.297 | 0.306 | 0.312 | 1.04 | 1.01 | 1.02 | 0.981 | 0.328 | 0.31 | 0.34 | 0.305 | 0.191 |
| HOP-62 | 1.16 | 1.08 | 1.09 | 1.03 | 0.356 | 0.402 | 0.366 | 0.335 | 0.249 | 0.233 | 0.214 | 1.13 | 0.739 | 1.07 | 1.1 | 0.561 | 0.679 | 0.659 | 0.631 | 0.197 |
| IA-LM | 1.47 | 1.08 | 1.22 | 1.11 | – | – | – | – | – | – | – | 0.983 | 0.711 | 0.78 | 0.794 | – | – | – | – | – |
| LC-2-ad | 1.13 | 0.847 | 0.886 | 0.955 | 0.451 | 0.429 | 0.511 | 0.385 | 0.687 | 0.887 | 0.787 | 0.467 | 0.248 | 0.491 | 0.369 | 0.815 | 0.496 | 0.815 | 0.463 | 0.718 |
| LCLC-97TM1 | 1.01 | 0.981 | 0.979 | 0.867 | 0.41 | 0.177 | 0.242 | 0.242 | 0.228 | 0.236 | 0.216 | 0.362 | – | 0.663 | 0.269 | 0.903 | 0.778 | 0.911 | 0.763 | 0.2 |
| LCLC-103H | 0.833 | 0.682 | 0.724 | 0.529 | 0.488 | 0.521 | 0.521 | 0.529 | 0.768 | 0.815 | 0.778 | – | – | – | – | 0.45 | 0.557 | 0.489 | 0.392 | 0.817 |
| LK-2 | 1.27 | 1.11 | 1.31 | 1.5 | 0.166 | 0.163 | 0.171 | 0.181 | 0.254 | 0.273 | 0.304 | 0.941 | 0.821 | 1.06 | 0.77 | 0.379 | 0.364 | 0.295 | 0.325 | 0.198 |
| NCI-H358 | 0.758 | 0.722 | 0.72 | 0.649 | 0.104 | 0.118 | 0.0969 | 0.101 | 0.241 | 0.237 | 0.21 | – | – | – | – | 0.167 | 0.134 | 0.15 | 0.155 | 0.211 |
| NCI-H522 | – | – | – | – | 0.668 | 0.5 | 0.618 | 0.563 | 0.689 | 0.685 | 0.611 | – | – | – | – | 0.967 | 0.821 | 0.842 | 0.946 | 0.615 |
| NCI-H650 | 1.08 | 1.12 | 1.09 | 1.01 | 0.84 | 0.731 | 0.848 | 0.761 | 0.308 | 0.317 | 0.306 | – | – | – | – | 0.439 | 0.392 | 0.472 | 0.441 | 0.319 |
| NCI-H661 | 1.07 | 1.01 | 0.992 | 1.01 | 0.364 | 0.354 | 0.337 | 0.325 | 0.624 | 0.518 | 0.537 | – | – | – | – | 0.95 | 0.851 | 0.907 | 0.867 | 0.526 |
| NCI-H1563 | 0.937 | 0.888 | 0.897 | 0.959 | – | – | – | – | – | – | – | – | – | – | – | 0.515 | 0.374 | 0.453 | 0.474 | – |
| NCI-H1703 | 0.356 | 0.317 | 0.402 | 0.295 | – | – | – | – | – | – | – | 1.6 | 0.852 | 1.54 | 1.4 | – | – | – | – | – |
| NCI-H1792 | – | – | – | – | – | – | – | – | 0.668 | 0.529 | 0.597 | 0.889 | 0.624 | 0.675 | 0.612 | 0.854 | 0.771 | 0.912 | 0.718 | 0.503 |
| NCI-H2228 | 1.07 | 0.701 | 0.992 | 0.803 | 0.327 | 0.299 | 0.282 | 0.271 | – | – | – | 0.841 | 0.823 | 0.836 | 0.91 | 0.663 | 0.445 | 0.543 | 0.587 | – |
| NCI-H2342 | 1.04 | 1.11 | 1.26 | 1.12 | 0.432 | 0.399 | 0.485 | 0.449 | 0.736 | 0.716 | 0.817 | – | – | – | – | 0.317 | 0.293 | 0.282 | 0.368 | 0.691 |
| SW 900 | 1.1 | 0.858 | 0.824 | 0.799 | 0.497 | 0.459 | 0.605 | 0.482 | 0.465 | 0.465 | 0.451 | – | – | – | – | 0.543 | 0.619 | 0.661 | 0.509 | 0.416 |

Reference: the supplement of paper PMC10307832
